Experiment: Solubility of polymerization initiator in the acrylamide compound having an ester structure
Type: physicochemical

## Cc1cc(C)c(C(=O)P(=O)(C(=O)c2c(C)cc(C)cc2C)c2ccccc2)c(C)c1 [B2-1, Bis(2,4,6-trimethylbenzoyl) phenyl phosphine oxide]
  solubility in the acrylamide compound having an ester structure: poor solubility
